# Measurements published in patent US20110118276A1, “METHODS OF TREATING ATHEROSCLEROSIS” (priority 2008, published 2011).
# “Also recorded” adds a separate entry of the source.
# Assays:
# Type in all cases: cell-based, human
# IL-8 = IL-8 secretion by foam cells, ELISA; conditions: for block of adenosine-induced IL-8 increase: antagonist 100 nM
# Description: (§1) U937 cells were induced to differentiate into macrophages by treatment with phorbol myristate acetate (PMA, 40 nM) for 72 h. Before use oxLDL was dialyzed against 1 L of 0.15 M sodium chloride and 0.3 mM EDTA (pH 7.4) for 12 h at 4° C., then against RPMI 1640 medium (two changes, 1 L/each change) for 24 h. All dialyses were carried out with Pierce Slide-A-Lyzer cassettes (10,000 molecular weight cut-off). After dialysis, lipoproteins were sterilized by passing them through a 0.45 μm (pore-size) filter, then added (50-100 μg/mL, Intracel, Frederick, Md.) to PMA-treated U937 cells and incubated in serum-free RPMI 1640 for 48 h.
# (§2) The levels of VEGF and IL-8 protein secreted by the cells in the medium were determined by VEGF and IL-8 ELISA kits (R&D Systems) according to the manufacturer's instructions. The data were presented as mean±SD from three independent experiments.
# HIF-1α protein = HIF-1α protein accumulation, western blot; conditions: foam cells; for antagonism of adenosine induced HIF-1α protein accumulation: antagonist 100 nM, adenosine 100 μM, hypoxia
# Description: Hypoxic exposures were done in a modular incubator chamber and flushed with a gas mixture containing 1% O2, 5% CO2 and balance N2 (MiniGalaxy, RSBiotech, Irvine, Scotland).
# U937 cells were induced to differentiate into macrophages by treatment with phorbol myristate acetate (PMA, 40 nM) for 72 h. […] All dialyses were carried out with Pierce Slide-A-Lyzer cassettes (10,000 molecular weight cut-off).
# Whole cell lysates were prepared as described previously (27). […] In experiments aimed to detect HIF, western blot analyses were performed using antibody against HIF-1α (1:250 dilution) and […] (1:1000 dilution) in 5% non-fat dry milk in PBS/0.1°)/0 Tween-20 overnight at 4° C. The protein concentration was determined using BCA protein assay kit (Pierce, Rockford, Ill.). Tubulin (1:250) was used to ensure equal protein loading. Immunoreactivity was assessed and quantified by using a VersaDoc Imaging System (Bio-Rad).
# VEGF = VEGF secretion by foam cells, ELISA; conditions: adenosine 100 μM, 24 h, hypoxic; for effect on adenosine-induced VEGF increase: antagonist 100 nM, U937 derived foam cells
# Description: as §1, §2
# PMA-treated U937 cells = experiment: Foam cell formation, Oil red O stain analysis; conditions: oxLDL 50 μg/mL, adenosine 100 μM, 24 h
# Description: as §1
# Treatment of PMA-differentiated U937 cells with test agents was performed 2 h before addition of oxLDL. After exposition to oxLDL under hypoxia for 24 h, U937 cells were fixed in phosphate buffered saline-buffered 4% paraformaldehyde solution for 15 min and then air dried. Oil red O (in 60% isopropanol) staining was done for 15 min essentially as described previously by Kalayoglu and Byrne (Infect. Immun. 1998, 66, 5067-5072). Cells were viewed under a bright-field microscope in 100× fields using a Nikon's Eclipse E800 microscope. Foam cells were defined as macrophages in which cytoplasm was filled with Oil red O-stainable lipid droplets.
# [1] = adenosine 100 μM, U937 derived foam cells, hypoxic
Structure (SMILES),block of adenosine-induced IL-8 increase (IL-8; [1]),effect on adenosine-induced VEGF increase (VEGF),antagonism of adenosine induced HIF-1α protein accumulation (HIF-1α protein),other results
CCNC(=O)[C@H]1O[C@@H](n2cnc3c(Nc4ccc(OCC(=O)Nc5ccccc5)cc4)ncnc32)[C@H](O)[C@@H]1O [1-deoxy-1-[6-{4-[(phenylcarbamoyl)-methoxy]phenylamino}-9H-purin-9-yl]-N-ethyl-β-D-ribofuranuronamide],,,,"IL-8 secretion (IL-8; A2B receptor agonist 1 μM): 142±8 % of IL-8 secretion; EC50 (IL-8; Homo sapiens, U-937, dose-response curve, U937 derived foam cells, hypoxic, read-out: EC50 for stimulation of IL-8 secretion): 58 ± 6 nM; induction of HIF-1α protein by adenosine receptor agonists (HIF-1α protein; CHA 10, 100 nM, CGS 21680 500, 1000 nM, A2B agonist 10, 100 nM, CI-IB-MECA 10, 100 nM): able to induce HIF-1α protein"
"CCCn1c(=O)c2[nH]c(C3CCCC3)nc2n(CCC)c1=O [DPCPX, 1,3-dipropyl-8-cyclopentylxanthine]",not,,,
"CCCn1c(=O)c2nc(-c3cc(OCC(=O)Nc4ccc5c(c4)OCO5)nn3C)[nH]c2n(CCC)c1=O [MRE-2029F20, N-1,3-benzodioxol-5-yl-2-{[5-(2,6-dioxo-1,3-dipropyl-2,3,6,9-tetrahydro-1H-purin-8-yl)-1-methyl-1H-pyrazol-3-yl]oxy}acetamide]",blocked,strongly reduced,partially antagonized,block of the effect of the A2B receptor agonist (1 μM) on IL-8 secretion (IL-8; U937 derived foam cells): completely blocked; effect on oxLDL and adenosine induced foam cells formation (Oil red O) (PMA-treated U937 cells; antagonist 100 nM): blocked the foam cells formation; also recorded: inhibition of foam cell formation
"CCCn1cc2c(nc(NC(=O)Nc3ccc(OC)cc3)n3nc(-c4ccco4)nc23)n1 [MRE-3008F20, 5-N-(4-methoxyphenyl-carbamoyl)amino-8-propyl-2-(2furyl)-pyrazolo-[4,3e]-1,2,4-triazolo[1,5-c]pyrimidine]",not,strongly reduced,partially antagonized,effect on oxLDL and adenosine induced foam cells formation (Oil red O) (PMA-treated U937 cells; antagonist 100 nM): blocked the foam cells formation; also recorded: inhibition of foam cell formation
Nc1nc2c(cnn2CCc2ccccc2)c2nc(-c3ccco3)nn12 [SCH 58261],not,inhibited to lesser extent,partially antagonized,
COc1ccccc1NC(=O)Nc1nc(-c2cccnc2)nc2ccccc12 [VUF 5574],,,,effect on oxLDL and adenosine induced foam cells formation (Oil red O) (PMA-treated U937 cells; antagonist 10 nM): blocked the foam cells formation; also recorded: inhibition of foam cell formation
Nc1ncnc2c1ncn2[C@@H]1O[C@H](CO)[C@@H](O)[C@H]1O [adenosine],,,,"increase of VEGF levels (VEGF; supernatant of U937 derived foam cells): 165±10%; increase of IL-8 levels (IL-8; adenosine 100 μM, supernatant of U937 derived foam cells, hypoxic): 158±10%; effect on oxLDL-induced foam cell formation (Oil red O) (PMA-treated U937 cells): increased"
